According to US5726156A, “Cytokine regulatory agents and methods of use in pathologies and conditions associated with altered cytokine levels” (Trega Biosciences, Inc., priority 1995, dated 1998):

How the values were obtained:
[1] = Reduction in body weight, Zucker fa/fa and Fa/+ rats; format: in vivo
Experimental: Adult Zucker fatty rats (fa/fa; 325-350 g) or non-obese Zucker rats (Fa/+; 250-275 g) each were divided into two groups. One group each of fa/fa and Fa/+ rats received intraperitoneal (ip) injections of 250 μg/kg EX-2, 3×/day, for 86 days, followed by 2×/day treatments for an additional 29 days. The other group of fa/fa and Fa/+rats received saline on the same schedule.
Administration of EX-2 caused a significant decrease in the weight gain of fa/fa and of Fa/+ rats (see FIG. 4). Specifically, saline treated fa/fa rats gained about 360 g during the […], whereas EX-2 treated fa/fa rats only gained 275 g, representing a 24% decrease in weight gain. […] In Fa/+ rats, the decreased weight gain was more modest, but again correlated to fat mass rather than lean muscle mass.
In other experiments, fa/fa rats received 0.5-10 mg/kg EX-2, 2×/day, for 14 days (1-20 mg/day). […] This weight loss correlated with […] consumption by the EX-2 treated rats as compared to the controls.

[2] = system: Carageenan-induced paw swelling; test: Carageenan-induced paw swelling; format: in vivo, mice; conditions: 1 μg/mouse; 2 hr time point
Experimental: Carageenan-induced paw swelling was induced using a modification of the methods of Hiltz and Lipton, Peptides 11:979-982 (1990); Vinegar et al., Fed. Proc. 46:118-126 (1987); and Vinegar et al., J. Pharmacol. Expt. Therap. 166:96-103 (1969), each of which is incorporated herein by reference. Briefly, adult female Balb/c mice were anesthetized by IP injection of 7 mg/kg ketoamine and 0.6 mg/kg rompun. Foot pad thickness was measured using a spring loaded micrometer (Swiss Precision Instruments). Foot pad thickness was expressed in units of 1/100 inch. After baseline measurements were obtained, mice were injected into a hind foot pad with either 0.2 ml physiologic saline (control) or varying doses of EX-2 or EX-3 in 0.2 ml saline (treated). The first injection was followed immediately by injection of 0.02 ml of 0.15% K-carageenan (Sigma Chemical Co.; St. Louis, Mo.).
Hind foot pad thickness was measured hourly for six hr, the change in thickness was determined and the percent reduction in swelling due to treatment with EX-2 was calculated.

glomerulonephritis = test: Glomerulonephritis (nephrotoxic serum), albuminuria; format: in vivo, rats; conditions: 100 μg/kg per injection, 3 times per day
Experimental: Male Sprague-Dawley rats (weight 194-248 g) were immunized by subcutaneous injection of 1 mg normal rabbit IgG (Sigma Chemical Co.) in Freund's complete adjuvant (Sigma Chemical Co.). EX-2 was administered 3 times per day (100 μg/kg per injection) throughout the duration of the experiment. Seven days later, the rats were injected with 1.5 ml of nephrotoxic serum iv via dorsal penile vein. Urine, plasma, and serum were collected before injection of nephrotoxic serum at 4, 6, 24, 48, and 96 hr thereafter. […] Albuminuria was quantified by immunoelectrophoresis.

[3] = system: STZ diabetes, blood glucose; test: Streptozotocin-induced diabetes; format: in vivo, rats; conditions: 150 μg/kg every 8 hr for 72 hr; STZ 65 mg/kg iv
Experimental: Male Sprague-Dawley rats were given 65 mg/kg of streptozotocin (STZ) intravenously through the tall vein. Rats were divided into two groups. The first group was administered EX-2, 150 μg/kg every 8 hr for 72 hr and the second group was a control. Blood samples were withdrawn under ether anesthesia every 8 hr for the first 72 hr, then every 12 hr or 24 hr until the end of the observation period. Plasma samples were assayed for glucose using a glucose assay kit (Trinder, Sigma Chemical Co.). As shown in Table VI below EX-2 effect a 72% reduction in blood glucose levels.

[4] = system: kidney (cyclosporine-induced nephrotoxicity); test: Cyclosporine-induced nephrotoxicity; format: in vivo, rats
Experimental: In the first study, male Sprague-Dawley rats (n=43) with a weight range of 240-290 g at the initiation of the cyclosporine A (CsA) treatment were divided into 4 weight matched groups. The groups were as follows: (1) Control: no CsA, no EX-2, treatment only with CsA vehicle (PBS) PO and EX-2 vehicle (also PBS) IP; (2) CsA: treatment with CsA (50 mg/kg in PBS administered PO daily at 0830 hr for 9 days) and IP injections of PBS (Ex-2 vehicle); (3) CsA and 50 μg: CsA treatment identical to group 2 with the addition of EX-2 (50 μg/kg IP administered daily at 0800 and 1700 hr in EX-2 vehicle); and (4) CsA and 500 μg: CsA treatment identical to groups 2 and 3, and EX-2 treatment protocol similar to group 3 except that the dose of EX-2 was 500 μg/kg BW. […] Renal blood flow was determined by the inulin extraction technique. […]
In the second study, male Sprague-Dawley rats (n=3l) with a weight range of 240-290 g at the time of initiation of the cyclosporine treatment were divided into 4 weight-matched groups. […] Renal hemodynamics were determined and extracellular fluid volumes were also assessed.
In the second study, where extracellular fluid volumes (ECF) were measured, there were no differences in ECF among control and treatment groups (27.6±1.9 in control, 27.5±1.7 in CsA and vehicle, 26.2±0.9 in CsA +200 μg/kg EX-2, and 25.7±1.4% in CsA +500 μg/kg EX-2). […]

Ac-Nle-Gln-His-(D)Phe-Arg-(D)Trp-Gly-NH2 [EX-2]
decreased weight gain ([1]; Fa/+ (non-obese) rats, 250 μg/kg ip): more modest | epididymal fat pad weight ([1]; fa/fa rats, 250 μg/kg ip): decreased epididymal fat pad weight | body weight gained ([1]; fa/fa rats, 250 μg/kg ip 3×/day then 2×/day, 105 day treatment, saline about 360 g): 275 g | decrease in weight gain ([1]; fa/fa rats, 250 μg/kg ip, vs saline treated): 24% | decrease in body weight ([1]; fa/fa rats, 20 mg EX-2/day (10 mg/kg 2×/day), 14 days): ~10% | rate of weight gain ([1]; fa/fa rats, 0.5-10 mg/kg 2×/day, 14 days, each group): decreased rate of weight gain | Reduction in Carageenan-induced Paw Swelling [2]: 45% | % Reduction, Glomerulonephritis, Urine Albumin (mg/day) (glomerulonephritis): 62% | % Reduction, STZ Diabetes, Blood Glucose (mg/dl) [3]: 72% | renal blood flow ([4]; CsA-treated rats, EX-2 IP twice daily): improved blood flow to values not different from control | GFR ([4]; compared to CsA and vehicle controls, in both studies): significantly increased GFR
